2 molecules from publication PMC3495668, “Serotonin-Induced Hypersensitivity via Inhibition of Catechol O-Methyltransferase Activity” (Molecular Pain, 2012) can be followed below.

In data set [1] the target is T1, catechol O-methyltransferase (COMT) (Sus scrofa, UniProt F1RHN3).
T1 construct: Purified COMT protein (derived from porcine liver), biotinylated at surface lysines
T1 sequence (F1RHN3 1-270): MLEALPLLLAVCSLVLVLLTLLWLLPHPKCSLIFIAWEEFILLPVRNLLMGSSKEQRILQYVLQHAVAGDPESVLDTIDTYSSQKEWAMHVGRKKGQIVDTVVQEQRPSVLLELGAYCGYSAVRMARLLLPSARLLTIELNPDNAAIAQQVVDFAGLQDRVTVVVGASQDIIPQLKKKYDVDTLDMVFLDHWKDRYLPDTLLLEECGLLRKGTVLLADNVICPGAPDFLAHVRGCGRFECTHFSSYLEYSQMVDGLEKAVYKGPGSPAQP
In words: SPR (Biacore […]); also radiolabelled SAM activity assay, Ki,app […]. The format is binding. For orientation: SPR reads the build-up and loss of mass on a sensor chip optically.

Substrate in data set [2]: Oc1ccccc1O
The data set is described as follows: radiolabelled SAM methylation assay, Michaelis-Menten KM. The class given is biochemical, Sus scrofa. The following applies: S-adenosyl-L-methionine; Mg2+ ([…] MgCl2) catechol substrate site.

Broadly, the Km is the substrate concentration at which the rate is half of its maximum.

In data set [1], `NCCc1c[nH]c2ccc(O)cc12` [serotonin] yielded a Kd of approximately 87 µM.

B1: catechol O-methyltransferase (COMT) (Sus scrofa) (protein)
chain: T1 sequence (F1RHN3 1-270)
notes: Purified COMT
For B1, in data set [2], the Km stood at 16 µM.
